pIC50: −log10 of the molar value.
How the values were obtained:
Rattus norvegicus [1] = organism: Rattus norvegicus; experiment: In vitro inhibition of [3H]GABA uptake in rat Hippocampal slices.; assay type: functional, organism-based
Rattus norvegicus [2] = experiment: Anticonvulsant activity against kindled rats was determined after ip administration; assay type: functional
Rattus norvegicus [3] = organism: Rattus norvegicus; experiment: In vitro Inhibitory activity against GABA uptake; assay type: functional
Mus musculus [4] = experiment: Potency inhibiting tonic extensor seizures from low-intensity corneal electroshock in mice following peroral administration.; assay type: functional
Mus musculus [5] = experiment: Potency of the inhibiting ataxia in mice following peroral administration.; assay type: functional
[6] = molecular target: Sodium channel alpha subunits; brain (Types I, II, III) (Rattus norvegicus, UniProt P04775+P04774+P08104); experiment: Inhibition of veratridine-stimulated [14C]- guanidine influx into rat cortical slice; assay type: functional
Rattus norvegicus [7] = organism: Rattus norvegicus; experiment: Potency inhibiting focal seizures in rat hippocampus preventing hippocampal after discharges; assay type: functional
Rodentia sp. [8] = experiment: Potency inhibiting clonic seizures induced by GABA antagonist pentylene tetrazole(PTZ) in rodents following oral administration.; assay type: functional
Rodentia sp. [9] = experiment: Inhibitory potency against threshold clonic seizures induced by ip picrotoxin in rodents; assay type: functional

Structure (SMILES) | pIC50 (Rattus norvegicus [1]; Rattus norvegicus, 3 h) | also measured
O=C(O)C1CCCN(CCOC(c2ccc(OC(F)(F)F)cc2)c2ccc(OC(F)(F)F)cc2)C1 (stereo not given) | 6.04 | 
O=C(O)C1CCCN(CCC=C(c2ccccc2)c2ccccc2)C1 (stereo not given) | 5.00 | 
Cl.O=C(O)C1CCCN(CCOC(c2ccc(Cl)cc2)c2ccc(Cl)cc2)C1 (stereo not given) | 6.39 | ED50 (Rattus norvegicus [2]): 25 mg/kg
O=C(O)C1CCCN(CCOC(c2ccccc2)c2ccc(Cl)c(Cl)c2)C1 (stereo not given) | 5.92 | 
Cc1ccc(C(OCCN2CCCC(C(=O)O)C2)c2ccc(C)cc2)cc1 (stereo not given) | 5.24 | 
CNC(=O)C1CCCN(CCOC(c2ccc(Cl)cc2)c2ccc(Cl)cc2)C1 (stereo not given) | 4.40 | 
O=C(O)[C@@H]1CCCNC1 [(R)-NIPECOTIC ACID] | 5.28 | pIC50 (Rattus norvegicus [3]): 5.28
O=C1NC(=O)C(c2ccccc2)(c2ccccc2)N1 [PHENYTOIN] | < 4.30 | 
O=C(O)[C@H]1CN(CCOC(c2ccc(Cl)cc2)c2ccc(Cl)cc2)CC[C@H]1O | 5.82 | 
O=C(O)C1CCCN(CCOC2c3ccccc3C=Cc3ccccc32)C1 (stereo not given) | 5.60 | 
O=C(O)C1CCCN(CCOC2c3ccc(Cl)cc3CCc3cc(Cl)ccc32)C1 (stereo not given) | 5.80 | 
COC(=O)C1=CCCN(CCOC(c2ccc(C(F)(F)F)cc2)c2ccc(C(F)(F)F)cc2)C1 | 4.40 | 
O=C1CCCN1CCOC(c1ccc(Cl)cc1)c1ccc(Cl)cc1 | 4.59 | 
O=C(O)C1CCCN(CCOC(c2ccccc2)c2ccccc2)C1 (stereo not given) | 5.47 | 
CCOC(=O)C1CCCN(CCOC(c2ccc(Cl)cc2)c2ccc(Cl)cc2)C1 (stereo not given) | 4.96 | 
O=C(O)C1CCCN(CCSC(c2ccccc2)c2ccccc2)C1 (stereo not given) | 4.22 | 
O=C(O)C1CCCN(CCOC(c2ccccc2)c2ccc(Cl)cc2)C1 (stereo not given) | 4.70 | 
O=C(O)C1CCCN(CC(=O)C(c2ccccc2)c2ccccc2)C1 (stereo not given) | < 4.30 | 
O=C(O)[C@H]1CCCN(CCOC(c2ccc(Cl)cc2)c2ccc(Cl)cc2)C1 (stereo in doubt; 37) |  | pIC50 (Rattus norvegicus [1]): 6.74
NC(=O)N1c2ccccc2C=Cc2ccccc21 [CARBAMAZEPINE] | < 4.30 | 
O=C(O)C1=CCCNC1 [GUVACINE] | 5.14 | 
O=C(O)C1CCCN(CCOC(c2ccc(C(F)(F)F)cc2)c2ccc(C(F)(F)F)cc2)C1 (stereo not given) | 6.15 | 
COC(=O)C1CCCN(CCOC(c2ccc(Cl)cc2)c2ccc(Cl)cc2)C1 (stereo not given) | 6.15 | 
O=C(O)C1CCCN(CCOC(c2ccc(Cl)cc2)c2ccco2)C1 (stereo not given) | 5.06 | 
O=C(O)C1CCCN(CCCOC(c2ccccc2)c2ccccc2)C1 (stereo not given) | 4.92 | 
O=C(O)C1CCCN(CCC(Cc2ccccc2)c2ccccc2)C1 (stereo not given) | 4.30 | 

Structure (SMILES) | pIC50 (Rattus norvegicus [1]; Rattus norvegicus, 3 h) | also measured
Cl.O=C(O)C1=CCCN(CCOC(c2ccc(C(F)(F)F)cc2)c2ccc(C(F)(F)F)cc2)C1 | 6.47 | ED50 (Mus musculus [4]): 1 mg/kg; ED50 (Mus musculus [5]): 64 mg/kg; IC50 [6]: 10 µM; ED50 (Rattus norvegicus [7]): 2.6 mg/kg; ED50 (Rodentia sp. [8]): 0.4 mg/kg; Ataxia (Rodentia sp. [9]): 1.7%
O=C(O)C1CCCN(CCOC(c2ccc(Cl)c(Cl)c2)C2CCCCC2)C1 (stereo not given) | 5.96 | 
O=C(O)C1CCCN(CCOC(c2ccc(Cl)cc2)c2ccc(Cl)c(C(F)(F)F)c2)C1 (stereo not given) | 5.85 | 
NC(=O)C1CCCN(CCOC(c2ccc(Cl)cc2)c2ccc(Cl)cc2)C1 (stereo not given) | 4.46 | 
Clc1ccc(C(OCCN2CCCCC2)c2ccc(Cl)cc2)cc1 | 4.68 | 
Cc1cc(Cl)ccc1C(OCCN1CCCC(C(=O)O)C1)c1ccc(Cl)cc1C (stereo not given) | 5.49 | 
O=C(O)C1CCCN(CCCOC(c2ccccc2)(c2ccccc2)c2ccccc2)C1 (stereo not given) | 5.10 | 
O=C(O)C1CCCN(CCOC(c2ccc(Cl)cc2)c2cccs2)C1 (stereo not given) | 5.44 | 
O=C(O)C1CCN(CCOC(c2ccc(Cl)cc2)c2ccc(Cl)cc2)CC1 | < 4.30 | 
O=C(O)C1CCCN(CCC2CC2(c2ccccc2)c2ccccc2)C1 (stereo not given) | < 4.30 | 
O=C(O)C1CCCN(CCc2oc3ccccc3c2-c2ccccc2)C1 (stereo not given) | 4.66 | 
O=C(O)C1CCN(CCOC(c2ccc(Cl)cc2)c2ccc(Cl)cc2)C1 (stereo not given) | < 4.30 | 
CCCC(CCC)C(=O)O [VALPROIC ACID] | < 4.30 | 
O=C(O)C1CCCN(CCOC(c2ccc(F)cc2)c2ccc(F)cc2)C1 (stereo not given) | 5.11 | 
O=C(O)[C@H]1CN(CCOC(c2ccc(Cl)cc2)c2ccc(Cl)cc2)CC[C@@H]1O | 5.92 | 
O=C(O)C1CCCN(CCOC(c2ccc(Cl)c(Cl)c2)c2ccc(Cl)c(Cl)c2)C1 (stereo not given) | 5.60 | 
Cl.O=C(O)C1=CCCN(CCOC(c2ccc(Cl)cc2)c2ccc(Cl)cc2)C1 | 6.39 | ED50 (Rattus norvegicus [2]): 14 mg/kg
O=C(O)CC1CCN(CCOC(c2ccc(Cl)cc2)c2ccc(Cl)cc2)C1 (stereo not given) | 5.57 | 
OCC1CCCN(CCOC(c2ccc(Cl)cc2)c2ccc(Cl)cc2)C1 (stereo not given) | 4.33 | 
CN(C)C(=O)C1CCCN(CCOC(c2ccc(Cl)cc2)c2ccc(Cl)cc2)C1 (stereo not given) | 4.60 | 
O=C(CCCN1CCCC(C(=O)O)C1)c1ccc(F)cc1 (stereo not given) | < 4.30 | 
N#CC1CCCN(CCOC(c2ccc(Cl)cc2)c2ccc(Cl)cc2)C1 (stereo not given) | < 4.30 | 
CC(=O)C1CCCN(CCOC(c2ccc(Cl)cc2)c2ccc(Cl)cc2)C1 (stereo not given) | 4.66 | 
O=C(O)[C@H]1CCCNC1 [(S)-NIPECOTIC ACID] | 4.26 | 
O=C(O)[C@H]1CCCN(CCOC(c2ccc(Cl)cc2)c2ccc(Cl)cc2)C1 (stereo in doubt; 36) |  | pIC50 (Rattus norvegicus [1]): 4.85

Source: ChEMBL document CHEMBL1125353, “Structure-activity studies on benzhydrol-containing nipecotic acid and guvacine derivatives as potent, orally-active inhibitors of GABA uptake” (J Med Chem, 1992)
